Results as given in patent US20120190635A1, “SELECTIVE OXIDATION OF C-H BONDS OF MODIFIED SUBSTRATES BY P450 MONOOXYGENASE” (THE REGENTS OF THE UNIVERSITY OF MICHIGAN, priority 2009, published 2012).
≈ marks a conversion by molar mass, not a printed value.

Assays:
[1] = system: Kocuria rhizophila ATCC9341; test: antibacterial MIC, microtiter dilution; conditions: for MIC: Kocuria rhizophila, ATCC9341, read-out: Minimal inhibitory concentration; for Minimal inhibitory concentration: Kocuria rhizophila ATCC9341, Nutrient broth
[2] = system: Staphylococcus aureus ATCC6538P; test: antibacterial MIC, microtiter dilution; conditions: for MIC: Staphylococcus aureus, ATCC6538P, read-out: Minimal inhibitory concentration; for Minimal inhibitory concentration: Staphylococcus aureus ATCC6538P, LB
[3] = system: Bacillus subtillis DHS5333; test: antibacterial MIC, microtiter dilution; conditions: for MIC: Bacillus, DHS5333, read-out: Minimal inhibitory concentration; for Minimal inhibitory concentration: Bacillus subtillis DHS5333, LB
Deinococcus radiodurans = test: antibacterial MIC, microtiter dilution; conditions: 60 h; for Minimal inhibitory concentration: Special media, 30° C.; for MIC: read-out: Minimal inhibitory concentration, Deinococcus radiodurans, Special media, 30° C.
Escherichia. coli TolC = test: antibacterial MIC, microtiter dilution; conditions: Mueller Hinten; for MIC: Escherichia coli, read-out: Minimal inhibitory concentration, E. coli W3110 TolC disruption mutant; for Minimal inhibitory concentration: E. coli W3110 TolC disruption mutant
S. aureus NorA = test: antibacterial MIC, microtiter dilution; conditions: for MIC: Staphylococcus aureus, read-out: Minimal inhibitory concentration; for Minimal inhibitory concentration: S. aureus 8325 NorA disruption mutant, Mueller Hinten
Acinetobacter baumannii = test: antibacterial MIC, microtiter dilution; conditions: for MIC: read-out: Minimal inhibitory concentration; for Minimal inhibitory concentration: Mueller Hinten
[4] = system: Multidrug resistant S. aureus (MRSA); test: antibacterial MIC, microtiter dilution; conditions: for MIC: Staphylococcus aureus, MRSA, read-out: Minimal inhibitory concentration; for Minimal inhibitory concentration: Multidrug resistant S. aureus (MRSA), Mueller Hinten
PikCD50N-RhFRED = PikCD50N-RhFRED (Streptomyces venezuelae, UniProt O87605, D50N); assay type: biochemical; conditions: for Number of products: Table 1
PikCD50N-RhFRED, sequence (O87605 other isoform, or with tags, fused parts or gaps D50N): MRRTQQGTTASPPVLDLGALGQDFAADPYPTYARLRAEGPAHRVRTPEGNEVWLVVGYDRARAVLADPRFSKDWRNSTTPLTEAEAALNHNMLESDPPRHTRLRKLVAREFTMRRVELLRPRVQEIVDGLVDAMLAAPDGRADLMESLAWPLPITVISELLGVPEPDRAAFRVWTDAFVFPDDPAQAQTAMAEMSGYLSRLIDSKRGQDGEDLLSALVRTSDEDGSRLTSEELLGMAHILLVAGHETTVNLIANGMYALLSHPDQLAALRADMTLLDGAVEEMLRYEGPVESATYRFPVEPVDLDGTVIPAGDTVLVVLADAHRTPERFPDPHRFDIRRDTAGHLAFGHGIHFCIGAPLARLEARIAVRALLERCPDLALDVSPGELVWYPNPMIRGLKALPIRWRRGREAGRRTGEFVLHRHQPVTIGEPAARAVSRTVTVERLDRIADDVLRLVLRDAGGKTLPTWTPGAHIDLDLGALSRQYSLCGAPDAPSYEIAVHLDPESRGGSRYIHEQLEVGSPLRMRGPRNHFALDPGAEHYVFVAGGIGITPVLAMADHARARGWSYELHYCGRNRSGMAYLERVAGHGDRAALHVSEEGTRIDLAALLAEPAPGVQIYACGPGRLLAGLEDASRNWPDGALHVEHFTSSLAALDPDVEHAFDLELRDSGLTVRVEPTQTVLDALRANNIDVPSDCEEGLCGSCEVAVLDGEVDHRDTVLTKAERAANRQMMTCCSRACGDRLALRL

Row | Compound | MIC [1] [µM] | MIC [2] [µM] | MIC [3] [µM] | Minimal inhibitory concentration (Deinococcus radiodurans) [µM] | MIC (Escherichia. coli TolC) [µM] | MIC (S. aureus NorA) [µM] | MIC (Acinetobacter baumannii) [µM] | MIC [4] [µM] | Minimal inhibitory concentration [1] [µM] | Minimal inhibitory concentration [2] [µM] | Minimal inhibitory concentration [3] [µM] | Minimal inhibitory concentration (Escherichia. coli TolC) [µM] | Minimal inhibitory concentration (S. aureus NorA) [µM] | Minimal inhibitory concentration (Acinetobacter baumannii) [µM] | Minimal inhibitory concentration [4] [µM] | Number of products (PikCD50N-RhFRED; PikCD50N-RhFRED) | MIC (Deinococcus radiodurans) [µM] | yield and selectivity (number of product peaks) relative to 12 (PikCD50N-RhFRED; PikCD50N-RhFRED) | hydroxylation by PikC / ability to serve as substrate, in words (PikCD50N-RhFRED)
1 | C[C@@H]1C[C@H](N(C)C)[C@@H](O)[C@H](OC2CCCCCCC(O)CCCCC2)O1 (single isomer, unassigned) [Compound 8-C7OH-a] | > 400 | > 400 | > 400 | 400 (≈ 149 µg/mL) | > 400 | > 400 | > 400 | > 400 | – | – | – | – | – | – | – | – | – | – | –
2 | C[C@@H]1C[C@H](N(C)C)[C@@H](O)[C@H](OC2CCCCCCC(O)CCCCC2)O1 (single isomer, unassigned) [Compound 8-C7OH-b] | – | – | – | 100 (≈ 37.2 µg/mL) | – | – | – | – | >400 | >400 | >400 | 400 (≈ 149 µg/mL) | >400 | >400 | >400 | – | – | – | –
3 | CC[C@H]1OC(=O)[C@H](C)[C@@H](O[C@@H]2OC(C)CC(C)C2C)[C@@H](C)C[C@@H](C)C(=O)/C=C/[C@H]1C (stereo partly drawn) [Compound 1, YC-17, reference compound] | 100 (≈ 42.3 µg/mL) | 100 (≈ 42.3 µg/mL) | 100 (≈ 42.3 µg/mL) | – | 100 (≈ 42.3 µg/mL) | 100 (≈ 42.3 µg/mL) | > 400 | > 400 | – | – | – | – | – | – | – | 2 | 400 (≈ 169 µg/mL) | – | –
4 | CC[C@H]1OC(=O)[C@H](C)[C@@H](O[C@@H]2O[C@H](C)C[C@H](N(C)C)[C@H]2O)[C@@H](C)C[C@@H](C)C(=O)/C=C/[C@]1(C)O [Compound 2, methymycin, reference compound] | 50 (≈ 23.5 µg/mL) | 100 (≈ 47 µg/mL) | 100 (≈ 47 µg/mL) | – | 50 (≈ 23.5 µg/mL) | 100 (≈ 47 µg/mL) | > 400 | > 400 | – | – | – | – | – | – | – | – | 200 (≈ 93.9 µg/mL) | – | –
5 | CC[C@H]1OC(=O)[C@H](C)C(=O)[C@H](C)[C@@H](O[C@@H]2O[C@H](C)C[C@H](N(C)C)[C@H]2O)[C@@H](C)C[C@@H](C)C(=O)/C=C/[C@H]1C [Compound 4, narbomycin, reference compound] | – | – | – | 100 (≈ 51 µg/mL) | – | – | – | – | <3.1 | 6.2 (≈ 3.16 µg/mL) | <3.1 | 25 (≈ 12.7 µg/mL) | 3.1 (≈ 1.58 µg/mL) | >400 | >400 | – | – | – | –
6 | CC[C@H]1OC(=O)[C@H](C)C(=O)[C@H](C)[C@@H](O[C@@H]2O[C@H](C)C[C@H](N(C)C)[C@H]2O)[C@@H](C)C[C@@H](C)C(=O)/C=C/[C@]1(C)O [Compound 5, pikromycin, reference compound] | – | – | – | 100 (≈ 52.6 µg/mL) | – | – | – | – | 6.2 (≈ 3.26 µg/mL) | 25 (≈ 13.1 µg/mL) | 12.5 (≈ 6.57 µg/mL) | 100 (≈ 52.6 µg/mL) | 12.5 (≈ 6.57 µg/mL) | >400 | >400 | – | – | – | –
7 | C[C@@H]1C[C@H](N(C)C)[C@@H](O)[C@H](OC2CCCCCCCC(O)CCCC2)O1 (stereo partly drawn) [Compound 8-C6OH-a, (2S,3R,4S,6R)-4-(dimethylamino)-2-(6-hydroxycyclotridecyloxy)-6-methyltetrahydro-2H-pyran-3-ol] | > 400 | > 400 | > 400 | – | > 400 | > 400 | > 400 | > 400 | – | – | – | – | – | – | – | – | > 400 | – | –
8 | C[C@@H]1C[C@H](N(C)C)[C@@H](O)[C@H](OC2CCCCCCCC(O)CCCC2)O1 (stereo partly drawn) [Compound 8-C6OH-b, (2S,3R,4S,6R)-4-(dimethylamino)-2-(6-hydroxycyclotridecyloxy)-6-methyltetrahydro-2H-pyran-3-ol] | – | – | – | 400 (≈ 149 µg/mL) | – | – | – | – | >400 | >400 | >400 | >400 | >400 | >400 | >400 | – | – | – | –
9 | CC1CC(N(C)C)C(O)C(OC2CCCCC2)O1 (stereo not drawn) [Compound 13, 2-(Cyclohexyloxy)-4-(dimethylamino)-6-methyltetrahydro-2H-pyran-3-ol] | > 400 | > 400 | > 400 | – | > 400 | > 400 | > 400 | > 400 | – | – | – | – | – | – | – | 0 | > 400 | – | –
10 | CC1CC(N(C)C)C(O)C(OC2CCCC3CCCCC32)O1 (stereo not drawn) [Compound 14, 2-(Decahydronaphthalen-1-yloxy)-4-(dimethylamino)-6-methyltetrahydro-2H-pyran-3-ol] | > 400 | > 400 | > 400 | – | > 400 | > 400 | > 400 | > 400 | – | – | – | – | – | – | – | 0 | > 400 | – | –
11 | CCCCC#CCOC1OC(C)CC(N(C)C)C1O (stereo not drawn) [Compound 16, 4-(Dimethylamino)-2-(hept-2-ynyloxy)-6-methyltetrahydro-2H-pyran-3-ol] | – | – | – | – | – | – | – | – | – | – | – | – | – | – | – | 0 | – | – | –
12 | C#CCCCCCCCCCOC1OC(C)CC(N(C)C)C1O (stereo not drawn) [Compound 18, 4-(dimethylamino)-6-methyl-2-(undec-10-ynyloxy)-tetrahydro-2H-pyran-3-ol] | > 400 | > 400 | > 400 | – | 400 (≈ 130 µg/mL) | > 400 | > 400 | > 400 | – | – | – | – | – | – | – | – | > 400 | – | –
13 | CN(C)CCCOC1CCCCCCCCCCCCCC1 [Compound 24, 3-(cyclopentadecyloxy)-N,N-dimethylpropan-1-amine] | – | – | – | – | – | – | – | – | – | – | – | – | – | – | – | – | – | improved compared to 12 | –
14 | OC1CCCCCCCCCCC1 [Cyclododecanol, reference compound] | > 400 | > 400 | > 400 | – | > 400 | > 400 | > 400 | > 400 | – | – | – | – | – | – | – | – | > 400 | – | unable to serve as a substrate
15 | OC1CCCCCCCCCCCCCC1 [Cyclopentadecanol, reference compound] | > 400 | > 400 | > 400 | – | > 400 | > 400 | > 400 | > 400 | – | – | – | – | – | – | – | – | > 400 | – | –
16 | OC1CCCCCCCCCCCC1 [Cyclotridecanol, reference compound] | > 400 | > 400 | > 400 | – | > 400 | > 400 | > 400 | > 400 | – | – | – | – | – | – | – | – | > 400 | – | –
17 | CC[C@H]1OC(=O)[C@H](C)[C@@H](O[C@H]2C[C@@](C)(OC)[C@@H](O)[C@H](C)O2)[C@H](C)[C@@H](O[C@@H]2O[C@H](C)C[C@H](N(C)C)[C@H]2O)[C@](C)(O)C[C@@H](C)C(=O)[C@H](C)[C@@H](O)[C@]1(C)O [Erythromycin, reference compound] | < 0.8 | < 0.8 | < 0.8 | – | < 0.8 | < 0.8 | 25 (≈ 18.3 µg/mL) | > 100 | – | – | – | – | – | – | – | – | 6.2 (≈ 4.55 µg/mL) | – | –
